Laboratory results: publication PMC9387934, “Randomized single oral dose phase 1 study of safety, tolerability, and pharmacokinetics of Iminosugar UV-4 Hydrochloride (UV-4B) in healthy subjects” (PLoS Neglected Tropical Diseases, 2022)
Structures can show the parent of a compound that is named as a salt. Where two headings read alike, the source gives them in different places.

Legend:
[1] = parameters: method as in Investigator’s Brochure (IB); conditions: dogs, ref Investigator’s Brochure (IB), cited from earlier work; for Finding at the highest dose: 150 mg/kg/dose TID for seven days
[2] = Phase 1a single ascending dose study: safety and tolerability (treatment-emergent adverse events); type: in vivo, human; conditions: for Tolerability of single oral doses / Dose-limiting toxicity: po; for Maximum tolerated dose: single oral dose in humans, not yet determined
Procedure: UV-4 ((2R,3R,4R,5S)-2-(hydroxymethyl)-1-(9-methoxynonyl)piperidine-3,4,5-triol, also called N-(9’-methoxynonyl)-1-deoxynojirimycin, or MON-DNJ) hydrochloride was evaluated in a first-in-human, randomized, single-center, double-blind, placebo-controlled, parallel group, single ascending dose Phase 1a clinical trial in healthy subjects (Figs 1 and 2, ClinicalTrials.gov Identifier NCT02061358 https://clinicaltrials.gov/ct2/show/NCT02061358). The primary objective was to determine the safety and tolerability of a single-ascending oral dose of UV-4 hydrochloride (Fig 3). […] The secondary objective was to determine PK parameters describing absorption and elimination of UV-4 following a single oral dose of UV-4 hydrochloride. Eight cohorts of eight subjects each were enrolled and completed the study. In each cohort, six subjects received UV-4 as the hydrochloride; two received placebo. Subjects were screened against study eligibility criteria up to four weeks (Days -28 to -2) before admission to the clinic (Day -1). Dosing was performed on an inpatient basis. Subjects remained in clinic for 48 hours post-dosing for PK sample collection and safety assessments and were discharged from the clinic on Day 3. Subjects returned to the clinic on Day 4 for additional safety assessments, then again on Day 9 ± 1 for a final follow-up visit.
Safety assessments included telemetry (pre-dose and 12 hours during and post-dosing), 12-lead ECG measurements, vital signs (supine and standing) including systolic blood pressure (SBP) and diastolic blood pressure (DBP) (mmHg), pulse rate (beats/minute), respiratory rate (breaths/minute), and oral temperature, physical examinations, clinical laboratory assessments (hematology, clinical chemistry, coagulation, urinalysis, platelet function), stool evaluation including occult blood, and adverse events (AEs).
Safety oversight was provided by an independent safety monitor (ISM), Safety Review Committee (SRC), and Safety Monitoring Committee (SMC). In addition, a cardiologist reviewed all cases with AEs related to heart rate and blood pressure. Summary statistics for subject baseline characteristics and measurements, disposition, exposure, and safety were tabulated by cohort in a blinded manner for the review by the SRC and SMC. Blinded individual case information was also supplied to the SMC and cardiologist for review. SRC reviews occurred after all subjects in a given cohort completed evaluations, or after predefined criteria triggered a review (halting criteria). Provided satisfactory safety review, subjects were enrolled into the next higher dose cohort. In addition, the SMC met to review all safety and exposure data after completion of Cohort 3. All AEs were coded to System Organ Class (SOC) and Preferred Term (PT) using the Medical Dictionary for Regulatory Activities (MedDRA), Version 16.1 [34].
All AEs were graded for severity and relationship to study product, according to one of the following categories:
• Grade 1: An event that is easily tolerated by the subject, causing minimal discomfort and not interfering with everyday activities; • Grade 2: An event that is sufficiently discomforting to interfere with normal everyday activities; • Grade 3: An event that prevents normal everyday activities; • Grade 4: An event that requires an emergency room visit or hospitalization […]
9.1 Specification of Safety Parameters
Safety is a primary outcome measure.
Adverse events will be evaluated from time of dose administration through the follow-up visit. Adverse events that have not resolved at the follow-up visit will be followed until resolution or until medically stable. […]
If a vital sign measurement is observed to be abnormal, it may be repeated up to a total of 2 times at 5 to 10 minutes intervals. If a normal value is obtained, no further repeat measurements are required. If the value is still abnormal after 2 repeats, the least abnormal value will be utilized for grading the AE. The AE will […]

[3] = cited from earlier work
CYP2C9 = tested on: CYP2C9; parameters: method as in Investigator’s Brochure (IB); conditions: in vitro; ref Investigator’s Brochure (IB); cited from earlier work
CYP1A2 = tested on: CYP1A2; parameters: method as in Investigator’s Brochure (IB); conditions: in vitro; ref Investigator’s Brochure (IB); cited from earlier work
DENV = conditions: cited from earlier work
[4] = compared with UV-4; cited from earlier work
[5] = mouse, cited from earlier work
[6] = parameters: method as in Investigator’s Brochure (IB); conditions: in vitro; ref Investigator’s Brochure (IB); cited from earlier work
[7] = 20 mg/kg TID, started 1 hour before infection, ref UV4-LIA-0004
[8] = 20 mg/kg TID, started 24 hours after infection, ref UV4-LIA-0003b
[9] = 20 mg/kg TID, started 24 hours after infection, ref UV4-LIA-0004
[10] = 20 mg/kg TID, started 48 hours after infection, ref UV4-LIA-0003b
[11] = 20 mg/kg TID, started 48 hours after infection, ref UV4-LIA-0004

Compound: COCCCCCCCCCN1C[C@H](O)[C@@H](O)[C@H](O)[C@H]1CO [UV-4, N-(9’-methoxynonyl)-1-deoxynojirimycin]
- Finding at the highest dose [1]: severe GI effects
- Finding at 10 mg/kg/dose TID [1]: diarrhea was still apparent although not adverse
- Grade 2 Related TEAE: number (%) of subjects ([2]; both, human, in vivo): 1 (2.1%)
- Grade 3 Related TEAE: number (%) of subjects ([2]; both, human, in vivo): 0
- Grade 3 TEAE: number (%) of subjects ([2]; both, human, in vivo): 1 (2.1%)
- Incidence of Bristol Stool Scale Type 7 ([2]; both, human, in vivo): no incidence of Bristol Stool Scale Type 7
- Related TEAE, Abdominal Pain: number (%) of subjects ([2]; both, human, in vivo): 1 (2.1%)
- Related TEAE, Balance disorder: number (%) of subjects ([2]; both, human, in vivo): 1 (2.1%)
- Related TEAE, Blood Calcium Decreased: number (%) of subjects ([2]; both, human, in vivo): 1 (2.1%)
- Related TEAE, Blood Pressure Decreased: number (%) of subjects ([2]; both, human, in vivo): 0
- Related TEAE, Cardiac disorders (System Organ Class): number (%) of subjects ([2]; both, human, in vivo): 1 (2.1%)
- Related TEAE, Dizziness postural: number (%) of subjects ([2]; both, human, in vivo): 1 (2.1%)
- Related TEAE, Dizziness: number (%) of subjects ([2]; both, human, in vivo): 1 (2.1%)
- Related TEAE, Ear and labyrinth disorders (System Organ Class): number (%) of subjects ([2]; both, human, in vivo): 1 (2.1%)
- Related TEAE, Gastrointestinal disorders (System Organ Class): number (%) of subjects ([2]; both, human, in vivo): 3 (6.3%)
- Related TEAE, General disorders and administration site conditions (System Organ Class): number (%) of subjects ([2]; both, human, in vivo): 1 (2.1%)
- Related TEAE, Headache: number (%) of subjects ([2]; both, human, in vivo): 2 (4.2%)
- Related TEAE, Investigations (System Organ Class): number (%) of subjects ([2]; both, human, in vivo): 2 (4.2%)
- Related TEAE, Lipase increased: number (%) of subjects ([2]; both, human, in vivo): 1 (2.1%)
- Related TEAE, Local Swelling: number (%) of subjects ([2]; both, human, in vivo): 1 (2.1%)
- Related TEAE, Nervous system disorder (System Organ Class): number (%) of subjects ([2]; both, human, in vivo): 4 (8.3%)
- Related TEAE, Neutrophil count decreased: number (%) of subjects ([2]; both, human, in vivo): 0
- Related TEAE, Presyncope: number (%) of subjects ([2]; both, human, in vivo): 0
- Related TEAE, Proteinuria: number (%) of subjects ([2]; both, human, in vivo): 1 (2.1%)
- Related TEAE, Renal and urinary disorders (System Organ Class): number (%) of subjects ([2]; both, human, in vivo): 1 (2.1%)
- Related TEAE, Supraventricular tachycardia: number (%) of subjects ([2]; both, human, in vivo): 0
- Related TEAE, Ventricular tachycardia: number (%) of subjects ([2]; both, human, in vivo): 1 (2.1%)
- Related TEAE, Vertigo: number (%) of subjects ([2]; both, human, in vivo): 1 (2.1%)
- Related TEAE, White blood cell count decreased: number (%) of subjects ([2]; both, human, in vivo): 0
- Subjects with ≥1 TEAE: number (%) of subjects ([2]; both, human, in vivo): 43 (89.6%)
- Tolerability of single oral doses ([2]; both, human, in vivo): safe at all doses tested up to 1000 mg
- Grade 1 Related TEAE: number (%) of subjects ([2]; human, in vivo): 10 (20.8%)
- TEAE Haematuria: number (%) of subjects ([2]; human, in vivo): 4 (8.3)
- TEAE Headache: number (%) of subjects ([2]; human, in vivo): 3 (6.3)
- TEAE Prothrombin time prolonged: number (%) of subjects ([2]; human, in vivo): 4 (8.3)
- Dose-dependent increases in adverse events ([2]; in vivo): not observed
- Fecal occult blood findings ([2]; in vivo): None of the subjects had positive fecal occult blood findings
- Subjects reporting abdominal pain ([2]; in vivo): two
- Subjects who vomited ([2]; in vivo): one
- Dose-limiting toxicity ([2]; in vivo): No dose limiting toxicity was observed
- Tolerability of single oral doses ([2]; in vivo): well tolerated
- Maximum tolerated dose [2]: > 1000 mg
- Accumulation ([3]; BID or TID dosing after 14 days in mouse or dog, ref Investigator’s Brochure (IB)): did not accumulate
- Direct inhibition of CYP2C9 (CYP2C9): No clinically relevant direct inhibition
- Direct inhibition of CYP1A2 (CYP1A2): No clinically relevant direct inhibition

Compound: COCCCCCCCCCN1C[C@H](O)[C@@H](O)[C@H](O)[C@H]1CO [UV-4B, N-(9’-methoxynonyl)-1-deoxynojirimycin hydrochloride]
- Survival rate (DENV; 2.5 mg/kg TID, ref UV4-LIA-0002): 40%
- Survival rate (DENV; 5 mg/kg TID, ref UV4-LIA-0002): 50%
- Mean time to death (MTTD) (DENV; 20 mg/kg TID, started 1 hour before infection, all surviving at end of study, ref UV4-LIA-0003b): more than 11 days
- Survival rate (DENV; 20 mg/kg TID, started 1 hour before infection, ref UV4-LIA-0003b): 100%
- Mean time to death (MTTD) (DENV; [7]): 9.1 days
- Survival rate at 11 days post-infection (DENV; [7]): 30%
- Mean time to death (MTTD) (DENV; [8]): 7 days
- Survival rate (DENV; [8]): 80%
- Mean time to death (MTTD) (DENV; [9]): 10.5 days
- Survival rate at 11 days post-infection (DENV; [9]): 60%
- Mean time to death (MTTD) (DENV; [10]): 9.3 days
- Survival rate (DENV; [10]): 70%
- Mean time to death (MTTD) (DENV; [11]): 6 days
- Survival rate at 11 days post-infection (DENV; [11]): 40%
- Minimal effective dose (survival of 90% to 100%) (DENV; doses 2.5 to 40 mg/kg TID, first dose 1 hour prior to infection, ref UV4-LIA-0002): 10 mg/kg TID
- Solubility of the hydrochloride salt [4]: higher solubility
- Finding at the highest dose [1]: severe GI effects
- Finding at 10 mg/kg/dose TID [1]: diarrhea was still apparent
- Related TEAE, Balance disorder: number (%) of subjects ([2]; both, human, in vivo): 1/48
- Related TEAE, Dizziness postural: number (%) of subjects ([2]; both, human, in vivo): 1/48
- Related TEAE, Dizziness: number (%) of subjects ([2]; both, human, in vivo): 1/48
- Related TEAE, Headache: number (%) of subjects ([2]; both, human, in vivo): 2/48
- Dose-limiting toxicity ([2]; in vivo): not observed
- Maximum tolerated dose [2]: > 1000 mg
- Dose with lymphoid depletion in thymus ([5]; F): ≥ 25 mg/kg/dose, TID
- Dose with lymphoid depletion in thymus ([5]; M): 100 mg/kg/dose, TID
- Dose with neutrophilic infiltration and erosion/ulcer in rectum ([5]; females (printed F100))): 100 mg/kg/dose, TID
- Neurologic Effects ([5]; functional observational battery): no effect in FOB
- Dose with decrease in thymus weight ([5]; printed (men)): ≥ 25 mg/kg/dose, TID
- Dose with increased AST ([5]; printed (men)): ≥ 600 mg/kg/dose, TID
- Dose with decrease in thymus weight ([5]; women [sic]): 100 mg/kg/dose, TID
- Dose with increased AST ([5]; women [sic]): 600 mg/kg/dose, TID
- Cardiovascular Effects [5]: none observed
- Dose with decrease in red cell mass, RBC count, HGB, and HCT [5]: 100 mg/kg/dose, TID
- Dose with fecal abnormalities [5]: > 250 mg/kg/dose, TID
- Bioavailability of the hydrochloride salt ([3]; animal studies): high bioavailability
- Mutagenicity, mouse lymphoma assay [6]: not found to be mutagenic or clastogenic
